Like-named read-outs stand apart in the source and are kept apart here.

Series [1] has as its system SOSV minigenome. The series can be described thus: microbe, parasite or virus in culture. To be noted: Sosuga virus; for activity at 0.05 µM / activity at 0.5 µM / activity at 5 µM: Huh-7, 72 h, read-out: Minigenome activity (Relative ZsG fluorescence); for EC50: Huh-7, read-out: Minigenome Screen EC50.
In another series the test system is rSOSV/ZsG. In words: microbe, parasite or virus in culture. It counts as cell-based. Conditions: Sosuga virus, Huh-7, read-out: rSOSV/ZsG Screen EC50.
The subject of the next series is rSOSV. In words: microbe, parasite or virus in culture. Type of series: cell-based. Conditions: Sosuga virus, Huh-7, 48 h, read-out: EC50 (rSOSV protein immunofluorescence).
A further series is described as follows: in vitro. To be noted: human.
The test system of series [2] is SOSV minigenome. Conditions: Huh7 cells; for Minigenome activity (Relative ZsG fluorescence): relative to mock-treated controls.
Another series relates to Huh7 cells. Conditions: human.
For series [3] the following is noted: human, in vivo, 125 mg/kg/day; cited from earlier work.

In the case of `CO[C@@H]1[C@H](O)[C@@H](CO)O[C@H]1n1ccc(N)nc1=O` [2′-O-Methylcytidine], in the series on SOSV minigenome [1], the activity at 0.05 µM came out at 129%, the activity at 0.5 µM was 104% and the activity at 5 µM was determined as 119%.

With `Nc1ncnc2c([C@@H]3N[C@H](CO)[C@@H](O)[C@H]3O)c[nH]c12` [BCX-4430], in the series with SOSV minigenome [1], the activity at 0.05 µM came to 133%, the activity at 0.5 µM turned out to be 105% and the activity at 5 µM was determined as 118%.

Consider `Nc1ccn([C@@H]2O[C@H](CO)[C@@H](O)[C@H]2F)c(=O)n1` [2′-deoxy-2′-fluorocytidine], for which the EC50 with rSOSV/ZsG is 1.48 ± 0.22 µM. The EC50 with rSOSV stood at 4.09 µM. In “in vitro”, this compound showed a viability of over 80% and a CC50 of over 50 µM. In the series on SOSV minigenome [1], the activity at 0.05 µM came out at 141%, the activity at 0.5 µM turned out to be 91%, the activity at 5 µM stood at 13% and the EC50 turned out to be 1.31 ± 0.15 µM.

For `NC(=O)c1nc(F)cnc1O` [T-705], the “Minigenome activity (Relative ZsG fluorescence)” value in the series on SOSV minigenome [2] (50 nM) came out at 1.11; with SOSV minigenome [2] (500 nM), 1.17; in the series on SOSV minigenome [2] (5000 nM) it was 1.05.

With `Nc1ncnc2c1ncn2[C@@H]1O[C@H](CO)C[C@H]1O` [Cordycepin], in the series on SOSV minigenome [1], the activity at 0.05 µM is 128%, the activity at 0.5 µM is 104% and the activity at 5 µM is 101%.

In the case of `Cc1cn([C@@H]2O[C@H](CO)[C@@H](O)[C@H]2O)c(=O)nc1N` [5-Methylcytidine], in the series with SOSV minigenome [1], the activity at 0.05 µM was found to be 124%, the activity at 0.5 µM was 110% and the activity at 5 µM is 125%.

As to `COc1c(C)c2c(c(O)c1C/C=C(\C)CCC(=O)O)C(=O)OC2` [Mycophenolic acid], the EC50 with rSOSV/ZsG is 0.33 ± 0.04 µM. Also, the EC50 in the series on rSOSV worked out at 0.48 µM. Also, the “Minigenome Screen EC50” value with SOSV minigenome [2] (ZsG fluorescence 72 hpt, normalized to mock-treated (DMSO) cells, listed as MPA) was “sub-micromolar”. Moreover, the CC50 in the series on Huh7 cells amounted to 1.74 ± 0.42 µM. In “in vitro”, this compound yielded a viability of over 80% and a CC50 of 1.7 µM. For the same compound, in the series with SOSV minigenome [1], the activity at 0.05 µM amounted to 89%, the activity at 0.5 µM came to 14% and the activity at 5 µM came to 1%.

Regarding `O=c1[nH]c(=O)n([C@@H]2O[C@H](CO)[C@@H](O)[C@H]2O)cc1Br` [5-Bromouridine], in the series with SOSV minigenome [1], the activity at 0.05 µM was determined as 97%, the activity at 0.5 µM was 92% and the activity at 5 µM was 122%.

On to `[N-]=[N+]=Nc1nc2c(N)ncnc2n1[C@@H]1O[C@H](CO)[C@@H](O)[C@H]1O` [8-Azidoadenosine], for which, in the series with SOSV minigenome [1], the activity at 0.05 µM was 120%, the activity at 0.5 µM came out at 122% and the activity at 5 µM is 1%.

Regarding `[N-]=[N+]=N[C@]1(CO)O[C@@H](n2ccc(N)nc2=O)[C@H](O)[C@@H]1O` [R-1479], the “Minigenome activity (Relative ZsG fluorescence)” value is 0.91 with SOSV minigenome [2] (50 nM), 0.84 in the series on SOSV minigenome [2] (500 nM) and 0.73 with SOSV minigenome [2] (5000 nM).

Consider `C[C@@]1(O)[C@H](O)[C@@H](CO)O[C@H]1n1ccc(=O)[nH]c1=O` [2′-C-Methyluridine], for which, in the series on SOSV minigenome [1], the activity at 0.05 µM was found to be 132%, the activity at 0.5 µM was 101% and the activity at 5 µM came out at 125%.

With `CC[C@H]1OC(=O)[C@H](C)[C@@H](O[C@H]2C[C@@](C)(OC)[C@@H](O)[C@H](C)O2)[C@H](C)[C@@H](O[C@@H]2O[C@H](C)C[C@H](N(C)C)[C@H]2O)[C@](C)(O)C[C@@H](C)CN(C)[C@H](C)[C@@H](O)[C@]1(C)O` [Azithromycin], in the series with SOSV minigenome [1], the activity at 0.05 µM is 102%, the activity at 0.5 µM stood at 106% and the activity at 5 µM amounted to 111%.

For the compound `C[C@@]1(O)[C@H](O)[C@@H](CO)O[C@H]1n1ccc(N)nc1=O` [2′-C-Methylcytidine], in the series on SOSV minigenome [1], the activity at 0.05 µM came out at 124%, the activity at 0.5 µM came to 104% and the activity at 5 µM turned out to be 114%.

As for `COc1c(-c2ccc3cc(NS(C)(=O)=O)ccc3c2)cc(-n2ccc(=O)[nH]c2=O)cc1C(C)(C)C` [ABT-333], in the series on SOSV minigenome [1], the activity at 0.05 µM came out at 127%, the activity at 0.5 µM turned out to be 108% and the activity at 5 µM stood at 105%.

With `C#C[C@@]1(O)[C@H](O)[C@@H](CO)O[C@H]1n1ccc2c(N)ncnc21` [NITD008], the “Minigenome activity (Relative ZsG fluorescence)” value with SOSV minigenome [2] (50 nM) is 1.35; in the series with SOSV minigenome [2] (500 nM), 1.07; in the series on SOSV minigenome [2] (5000 nM), 1.13.

Take `O=c1cnn([C@@H]2O[C@H](CO)[C@@H](O)[C@H]2O)c(=S)[nH]1` [6-Aza-2-thiouridine]: in the series with SOSV minigenome [1], the activity at 0.05 µM was 128%, the activity at 0.5 µM came out at 95% and the activity at 5 µM came out at 110%.

Regarding `Nc1ncn([C@@H]2O[C@H](CO)[C@@H](O)[C@H]2O)c(=O)n1` [5-Azacytidine], in the series with SOSV minigenome [1], the activity at 0.05 µM amounted to 146%, the activity at 0.5 µM came out at 111% and the activity at 5 µM stood at 108%.

For the compound `Nc1ncnc2c1nnn2[C@@H]1O[C@H](CO)[C@@H](O)[C@H]1O` [8-Azaadenosine], in the series with SOSV minigenome [1], the activity at 0.05 µM came to 146%, the activity at 0.5 µM was 85% and the activity at 5 µM was determined as 2%.

Consider `CC(C)C(=O)OC[C@H]1O[C@@H](n2ccc(N)nc2=O)[C@](C)(F)[C@@H]1OC(=O)C(C)C` [R-7128], for which the “Minigenome activity (Relative ZsG fluorescence)” value was 0.84 in the series with SOSV minigenome [2] (50 nM), 0.87 in the series on SOSV minigenome [2] (500 nM) and 0.99 with SOSV minigenome [2] (5000 nM).

Regarding `Nc1nc(Cl)nc2c1ncn2[C@@H]1O[C@H](CO)[C@@H](O)[C@H]1O` [2-Chloroadenosine], in the series with SOSV minigenome [1], the activity at 0.05 µM was 148%, the activity at 0.5 µM is 143% and the activity at 5 µM worked out at 145%.

On to `[N-]=[N+]=Nc1cn([C@@H]2O[C@H](CO)[C@@H](O)[C@H]2O)c(=O)[nH]c1=O` [5-Azidouridine], for which, in the series with SOSV minigenome [1], the activity at 0.05 µM worked out at 114%, the activity at 0.5 µM turned out to be 104% and the activity at 5 µM was determined as 107%.

As to `Cc1cn([C@H]2C[C@H](N=[N+]=[N-])[C@@H](CO)O2)c(=O)[nH]c1=O` [Zidovudine], in the series on SOSV minigenome [1], the activity at 0.05 µM is 123%, the activity at 0.5 µM came to 93% and the activity at 5 µM worked out at 113%.

On to `CC(C)OC(=O)[C@H](C)N[P@](=O)(OC[C@H]1O[C@@H](n2ccc(=O)[nH]c2=O)[C@](C)(F)[C@@H]1O)Oc1ccccc1` [PSI-7977], for which, in the series with SOSV minigenome [1], the activity at 0.05 µM amounted to 102%, the activity at 0.5 µM turned out to be 102% and the activity at 5 µM turned out to be 89%.

Take `O=c1[nH]c(=O)n([C@@H]2O[C@H](CO)[C@@H](O)[C@H]2O)cc1Cl` [5-Chlorouridine]: in the series with SOSV minigenome [1], the activity at 0.05 µM came to 119%, the activity at 0.5 µM was found to be 125% and the activity at 5 µM amounted to 146%.

Take `C[C@@]1(O)[C@H](O)[C@@H](CO)O[C@H]1n1ccc2c(N)ncnc21` [7-DMA]: the figures for the “Minigenome activity (Relative ZsG fluorescence)” value in the series on SOSV minigenome [2] (50 nM), in the series with SOSV minigenome [2] (500 nM) and in the series with SOSV minigenome [2] (5000 nM) were 1.26, 1.02 and 1.06, respectively.

Take `O=c1cnn([C@@H]2O[C@H](CO)[C@@H](O)[C@H]2O)c(=O)[nH]1` [6-azauridine]: the EC50 with rSOSV/ZsG worked out at 7.99 ± 1.32 µM. In the series with rSOSV, the EC50 came to 8.9 µM. In the series “in vitro”, the viability is over 80% and the CC50 was over 50 µM. In the series on SOSV minigenome [1], the activity at 0.05 µM was found to be 120%, the activity at 0.5 µM stood at 103%, the activity at 5 µM came to 46% and the EC50 worked out at 5.17 ± 1.01 µM.

On to `Cc1cn([C@H]2C=C[C@@H](CO)O2)c(=O)[nH]c1=O` [Stavudine], for which, in the series with SOSV minigenome [1], the activity at 0.05 µM is 126%, the activity at 0.5 µM was 104% and the activity at 5 µM is 115%.

Regarding `C[C@H](Cn1cnc2c(N)ncnc21)OCP(=O)(O)O` [Tenofovir], in the series on SOSV minigenome [1], the activity at 0.05 µM was 110%, the activity at 0.5 µM came to 106% and the activity at 5 µM is 107%.

As to `O=c1[nH]c(=O)n([C@@H]2O[C@H](CO)[C@@H](O)[C@H]2O)cc1F` [5-fluorouridine], in the series on SOSV minigenome [2] (dose-response analysis), the “Extent of minigenome signal inhibition and cytotoxicity” value is on record as “did not completely inhibit minigenome signal even at the highest concentrations evaluated”. In the series “in vitro”, this compound registered a viability of over 80% and a CC50 of over 50 µM. For the same compound, in the series on SOSV minigenome [1], the activity at 0.05 µM was found to be 112%, the activity at 0.5 µM came out at 25%, the activity at 5 µM came to 10% and the EC50 came to 0.29 ± 0.13 µM.

As to `CC(=O)OC[C@H]1O[C@@H](n2ncc(=O)[nH]c2=O)[C@H](OC(C)=O)[C@@H]1OC(C)=O` [6-azauridine triacetate], in series [3], the plasma concentrations was at least 100 µM.

As to `NC(=O)c1ncn([C@@H]2O[C@H](CO)[C@@H](O)[C@H]2O)n1` [Ribavirin], the EC50 in the series with rSOSV/ZsG was determined as 6.1 ± 0.09 µM. The same compound displayed a CC50 in the series “in vitro” of over 50 µM. In addition, in the series on SOSV minigenome [1], the activity at 0.05 µM was found to be 136%, the activity at 0.5 µM came out at 113%, the activity at 5 µM worked out at 78% and the EC50 worked out at 5.91 ± 0.85 µM.

In the case of `CO[C@@H]1[C@H](O)[C@@H](CO)O[C@H]1n1ccc(=O)[nH]c1=O` [2′-O-Methyluridine], in the series with SOSV minigenome [1], the activity at 0.05 µM stood at 150%, the activity at 0.5 µM was 104% and the activity at 5 µM was found to be 142%.

`CC(C)C(=O)OC[C@@]1(N=[N+]=[N-])O[C@@H](n2ccc(N)nc2=O)[C@H](OC(=O)C(C)C)[C@@H]1OC(=O)C(C)C` [Balapiravir (R1626), Balapiravir]: in the series on SOSV minigenome [1], the activity at 0.05 µM worked out at 105%, the activity at 0.5 µM is 93% and the activity at 5 µM was determined as 90%.

For the compound `C[C@@]1(F)[C@H](O)[C@@H](CO)O[C@H]1n1ccc(N)nc1=O` [PSI-6130], the “Minigenome activity (Relative ZsG fluorescence)” value in the series on SOSV minigenome [2] (50 nM) was determined as 0.84; with SOSV minigenome [2] (500 nM) it was 0.85; in the series with SOSV minigenome [2] (5000 nM), 0.91.
